In PubChem BioAssay (NCI):
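The compound was tested at five concentrations on cells cultured in 96-well plates, with a 48-hour exposure period. TGI denotes the concentration required for complete inhibition of growth.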

Legend:
Test in all cases: NCI tumour cell line growth inhibition, 48 h
MDA-MB-435 = test system: MDA-MB-435
NCI/ADR-RES ovarian = test system: NCI/ADR-RES ovarian
DMS 273 small cell lung = test system: DMS 273 small cell lung
P388/ADR leukemia = test system: P388/ADR leukemia
M19-MEL melanoma = test system: M19-MEL melanoma
HOP-18 NSCLC = test system: HOP-18 NSCLC
SN12K1 renal = test system: SN12K1 renal
DLD-1 colon = test system: DLD-1 colon
P388 leukemia = test system: P388 leukemia
XF 498 CNS = test system: XF 498 CNS
786-0 renal = test system: 786-0 renal
RXF-631 renal = test system: RXF-631 renal

| SMILES | TGI (MDA-MB-435) | TGI (NCI/ADR-RES ovarian) | TGI (DMS 273 small cell lung) | TGI (M19-MEL melanoma) | TGI (DLD-1 colon) | TGI (XF 498 CNS) | TGI (786-0 renal) | other results |
| --- | --- | --- | --- | --- | --- | --- | --- | --- |
| CCOC(=O)NC(Nc1ncccn1)(C(=O)OCC)C(F)(F)F (stereo unspecified) | > 100 µM | > 100 µM |  |  |  |  |  |  |
| CSc1nc(NC2OCC(O)C(O)C2O)c(N)c(=O)[nH]1 (stereo unspecified) |  | > 100 µM | > 100 µM | > 100 µM | > 100 µM |  |  | TGI (P388/ADR leukemia): > 100 µM; TGI (HOP-18 NSCLC): > 100 µM; TGI (SN12K1 renal): > 100 µM; TGI (P388 leukemia): > 100 µM |
| Cc1ccc2c(c1)C(=O)N(N(C)C)CC(=O)N2 |  |  | > 100 µM | > 100 µM | > 100 µM | > 100 µM |  | TGI (HOP-18 NSCLC): > 100 µM |
| Cc1cc(C)n(-c2nsc3ccccc23)n1 |  |  | > 100 µM | > 100 µM |  |  |  | TGI (HOP-18 NSCLC): > 100 µM |
| CC(C)(C)[Si](C)(C)OCC1OC(n2cnc3c(N)ncnc32)CC1O (stereo unspecified) | > 100 µM | > 100 µM |  |  |  |  |  |  |
| N#CN=[N+]([O-])c1ccc(C(=O)O)cc1 | 31.8 µM | 39.9 µM |  |  |  |  |  |  |
| C/C(N=NS(=O)(=O)c1ccccc1)=C1\C=CC=CN1O |  |  | > 100 µM | > 100 µM | > 100 µM | > 100 µM | > 100 µM | TGI (HOP-18 NSCLC): > 100 µM; TGI (RXF-631 renal): > 100 µM |
| CC1CCC2(O)C3(C)CC4(O)OC2(C1O)C1(O)C3(O)C(OC(=O)c2ccc[nH]2)C(O)(C(C)C)C41C (stereo unspecified) | > 100 µM | > 100 µM |  |  |  |  | > 100 µM |  |
| COc1ccc2nc3cc(Cl)ccc3c(NCCNC(=O)Cn3c(=O)n(C)c(=O)c4c3nc3c(c(=O)n(C)c(=O)n3C)[n+]4[O-])c2c1 | > 69.5 µM | > 95.8 µM |  |  |  |  | > 100 µM |  |
| OCCOCCN1CCN(CCCN2c3ccccc3Sc3ccc(C(F)(F)F)cc32)CC1 | 23.8 µM |  |  |  |  |  | 31.3 µM |  |
| O=C1Nc2ccccc2C1=Nc1cccc2ncccc12 | 42.3 µM | > 100 µM |  |  |  |  | > 100 µM |  |
| O=C1NC2=C(CCCC/C2=N\O)C12CCCCC2 |  |  |  | > 100 µM | > 100 µM | > 100 µM |  |  |
| NCCCOc1ccc([N+](=O)[O-])cc1Cl |  |  | > 100 µM | > 100 µM | > 100 µM | > 100 µM | > 100 µM |  |
| c1coc(CNc2ncnc3[nH]ncc23)c1 |  |  | > 100 µM | > 100 µM | > 100 µM | > 100 µM | > 100 µM | TGI (RXF-631 renal): > 100 µM |
| CC(=O)c1ccc2c(c1)c1c(C)c3c[n+](C)ccc3c(C)c1n2C |  | > 100 µM | 18.8 µM | 23.7 µM | > 100 µM | 17.1 µM |  | TGI (P388/ADR leukemia): 21.6 µM; TGI (HOP-18 NSCLC): 75.9 µM; TGI (SN12K1 renal): 13.7 µM; TGI (P388 leukemia): 4.68 µM |
| CCN(CC)CCNc1ccc2nnn3c4ccc(C)cc4c(=O)c1c23 |  |  |  | 27.8 µM | 25.9 µM |  | 18.6 µM | TGI (RXF-631 renal): 18.4 µM |
| Brc1ccc(C2CC(c3cccc4ccccc34)=Nc3ccccc3S2)cc1 (stereo unspecified) |  |  | > 100 µM | > 100 µM | > 100 µM | > 100 µM |  |  |
